Experimental data: patent US9555038B2, “Heterocycle-substituted tetracyclic compounds and methods of use thereof for the treatment of viral diseases” (Merck Sharp & Dohme Corp., priority 2013, dated 2017)
Where two headings read alike, the source gives them in different places.

Experiments:
[1] = test system: HCV replicon 1B; test: Cell-based HCV Replicon Assay B, replicon 1B
In short: (§1)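 Replicon cells seeded in 5% FBS; compounds added 24 h later, then 3 days' incubation. Replicon RNA quantified by real-time RT-PCR with genotype-specific primers/probes (NS5B amplicon for 1b). EC50 = concentration raising CT by 1 over projected baseline.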

[2] = test system: HCV replicon 2B; test: Cell-based HCV Replicon Assay A, replicon 2B
In short: (§2)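 Replicon cells were seeded at 2000 cells/well with test compound in 10 serial dilutions, starting at 333.3 nM to 1.667 nM, in 0.5% DMSO and 5% FBS. On day 3, cells were washed and lysed, and replicon RNA was quantified by multiplex TaqMan RT-PCR normalised to cyclophilin.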

[3] = test system: HCV replicon 1A; test: Cell-based HCV Replicon Assay A, replicon 1A
In short: as §2

[4] = test system: HCV replicon 1AY93H; test: Cell-based HCV Replicon Assay A, replicon 1AY93H
In short: as §2

[5] = test system: HCV replicon 1AQ30D; test: Cell-based HCV Replicon Assay B, replicon 1AQ30D
In short: as §1

[6] = Hepatitis C virus, read-out: 2B IC50 (nM), replicon 2B
[7] = Hepatitis C virus, read-out: 1A Y93H IC50 (nM), replicon 1AY93H
[8] = Hepatitis C virus, read-out: 1A Q30D IC50 (nM), replicon 1AQ30D
[9] = read-out: 1A Y93H IC50, replicon 1AY93H
[10] = read-out: 1A Q30D IC50, replicon 1AQ30D

**Q.** Which results are given for `COC(=O)NC(C(=O)N1CCC[C@H]1c1ncc(-c2ccc3c(c2)cc2n3C(c3cnc(C4CCC4)s3)Oc3cc(-c4cnc([C@@H]5CCCN5C(=O)[C@@H](NC(=O)OC)C(C)C)[nH]4)cc(C)c3-2)[nH]1)C1CCOC(C)(C)C1` (single isomer, unassigned) [Compound 221]?
**A.** IC50 ([1]; Hepatitis C virus): 8 pM; IC50 [2, 6]: 0.006 nM; IC50 ([3]; Hepatitis C virus): 7 pM; IC50 [4, 7]: 0.06 nM; IC50 [5, 8]: 0.39 nM

**Q.** What does the source list for `CCC(CC)c1ncc(C2Oc3cc(-c4cnc([C@@H]5CCCN5C(=O)[C@@H](NC(=O)OC)C(C)C)[nH]4)cc(F)c3-c3cc4cc(-c5cnc([C@@H]6CCCN6C(=O)C(NC(=O)OC)C6CCOC(C)(C)C6)[nH]5)ccc4n32)s1` (single isomer, unassigned) [Compound 445]?
**A.** IC50 [1]: 4.6 pM; IC50 ([2]; read-out: 2B IC50, replicon 2B): 0.096 nM; IC50 [3]: 2.8 pM; IC50 [4, 9]: 0.107 nM; IC50 [5, 10]: 0.949 nM

**Q.** What does the source list for `COC(=O)NC(C(=O)N1CCC[C@H]1c1ncc(-c2ccc3c(c2)cc2n3C(c3cnc(C4CC4)s3)Oc3cc(-c4cnc([C@@H]5CCCN5C(=O)[C@@H](NC(=O)OC)C(C)C)[nH]4)cc(C)c3-2)[nH]1)C1C[C@@H](C)O[C@H](C)C1` (single isomer, unassigned) [Compound 213]?
**A.** IC50 ([1]; Hepatitis C virus): 7 pM; IC50 [2, 6]: 0.005 nM; IC50 ([3]; Hepatitis C virus): 7.8 pM; IC50 [4, 7]: 0.0252 nM; IC50 [5, 8]: 0.126 nM

**Q.** With `COC(=O)N[C@H](C(=O)N1CCC[C@H]1c1ncc(-c2cc(C)c3c(c2)OC(c2cnc(C4CC4)s2)n2c-3cc3cc(-c4cnc([C@@H]5CCCN5C(=O)[C@@H](NC(=O)OC)C(C)C)[nH]4)ccc32)[nH]1)C(C)C` (single isomer, unassigned) [Compound 200] as the compound, how does the IC50 ([1]; Hepatitis C virus) read?
**A.** 3 pM

**Q.** And the IC50 [2, 6]?
**A.** 0.014 nM

**Q.** And the IC50 ([3]; Hepatitis C virus)?
**A.** 4.9 pM

**Q.** What about the IC50 [4, 7] of the same compound?
**A.** 0.0796 nM

**Q.** And the IC50 [5, 8]?
**A.** 0.961 nM

**Q.** What does the source list for `COC(=O)NC(C(=O)N1CCCC1c1ncc(-c2cc(F)c3c(c2)OC(c2cnc(C4CCCC4)s2)n2c-3cc3cc(-c4cnc(C5CC6CC6N5C(=O)C(NC(=O)OC)C(C)C)[nH]4)ccc32)[nH]1)C(C)C` (single isomer, unassigned) [Compound 320]?
**A.** IC50 [1]: 3 pM; IC50 ([2]; replicon 2B, read-out: 2B IC50): 0.203 nM; IC50 [3]: 1.7 pM; IC50 ([4]; replicon 1AY93H, read-out: 1A Y93H IC50): 0.036 nM; IC50 ([5]; replicon 1AQ30D, read-out: 1A Q30D IC50): 0.59 nM

**Q.** `COC(=O)NC(C(=O)N1CCC[C@H]1c1ncc(-c2ccc3c(c2)cc2n3C(c3cnc(CC(C)C)s3)Oc3cc(-c4cnc([C@@H]5CCCN5C(=O)[C@@H](NC(=O)OC)C(C)C)[nH]4)cc(F)c3-2)[nH]1)C1C[C@@H](C)O[C@@H](C)C1` (single isomer, unassigned) [Compound 547] was tested. Which IC50 ([1]; Hepatitis C virus) did it give?
**A.** 1.8 pM

**Q.** What about the IC50 ([2]; read-out: 2B IC50, replicon 2B) of the same compound?
**A.** 0.006 nM

**Q.** And the IC50 [3]?
**A.** 2.8 pM

**Q.** What about the IC50 [4, 9] of the same compound?
**A.** 0.005 nM

**Q.** What about the IC50 [5, 8] of the same compound?
**A.** 0.028 nM

**Q.** `COC(=O)N[C@H](C(=O)N1CCC[C@H]1c1ncc(-c2cc(F)c3c(c2)OC(c2cnc(-c4ccc(OC(F)(F)F)cc4)s2)n2c-3cc3cc(-c4cnc([C@@H]5CCCN5C(=O)[C@@H](NC(=O)OC)C(C)C)[nH]4)ccc32)[nH]1)C(C)C` (single isomer, unassigned) [Compound 78] was tested. Which IC50 [1] did it give?
**A.** 1 pM

**Q.** And the IC50 ([2]; read-out: 2B IC50, replicon 2B)?
**A.** 0.193 nM

**Q.** And the IC50 [3]?
**A.** 1.4 pM

**Q.** What about the IC50 [4, 9] of the same compound?
**A.** 0.165 nM

**Q.** What about the IC50 [5, 10] of the same compound?
**A.** 1.86 nM

**Q.** For `COC(=O)NC(C(=O)N1CCC[C@H]1c1ncc(-c2ccc3c(c2)cc2n3C(c3ncc(C4CC4)s3)Oc3cc(-c4cnc([C@@H]5CCCN5C(=O)[C@@H](NC(=O)OC)C(C)C)[nH]4)cc(F)c3-2)[nH]1)C1C[C@@H](C)O[C@@H](C)C1` (single isomer, unassigned) [Compound 51], which IC50 ([1]; Hepatitis C virus) is on record?
**A.** 3 pM

**Q.** What about the IC50 [2, 6] of the same compound?
**A.** 0.025 nM

**Q.** What about the IC50 ([3]; Hepatitis C virus) of the same compound?
**A.** 2.2 pM

**Q.** And the IC50 [4, 7]?
**A.** 0.0223 nM

**Q.** And the IC50 [5, 8]?
**A.** 0.152 nM
